Data from PubChem BioAssay AID1409 (The Scripps Research Institute Molecular Screening Center, 2008).
Activity calls are given as the source filed them. The rule behind the calls is not given here.

The molecules below were run on Cell-based STAT3 reporter inhibition, counterscreen (assay: STAT3 reporter signal reduction – cell-based, counter-screen for STAT1 inhibitor project, dose response (AID 1409)).
For `CS(=O)(=O)c1nc(-c2ccc(F)cc2)cc(C(F)(F)F)n1`, the IC50 was 23.8 µM (inactive). For `CN1CCN(Cc2nc3ccccc3c(=O)n2Cc2nc(-c3cccc([N+](=O)[O-])c3)cs2)CC1`, the IC50 was > 55.7 µM (inactive). In the case of `CS(=O)(=O)c1nc(-c2ccccc2)cc(C(F)(F)F)n1`, the IC50 is reported as 20.8 µM (inactive). In the case of `O=C(c1ccco1)N1CCN(c2ncnc3c2[nH]c2ccccc23)CC1`, the IC50 is reported as > 55.7 µM (inactive). For `COc1ccccc1-c1cc(C(F)(F)F)nc(S(=O)(=O)CCCC(=O)Nc2cccnc2Cl)n1`, the IC50 was 34.6 µM (inactive). With `Cc1cccc(/C=C(\c2nc3ccccc3[nH]2)S(=O)(=O)c2ccccc2)c1` the IC50 was 20.3 µM (inactive). In the case of `Cc1ccc(C2=Nc3c(ccc4ccccc34)C(c3ccncc3)=NN2)cc1`, the IC50 is reported as > 55.7 µM (inactive). For `Cc1ccccc1NC(=O)C(=Cc1ccc(C(=O)O)cc1)C(=O)Nc1ccccc1C`, the IC50 was > 55.7 µM (inactive). With `COc1ccccc1-c1cc(C(F)(F)F)nc(S(C)(=O)=O)n1` the IC50 was 31.8 µM (inactive). `CN1CCN(Cc2nc3ccccc3c(=O)n2Cc2nc(-c3ccccc3F)cs2)CC1` was tested, and the IC50 was > 55.7 µM (inactive). In the case of `CCOC(=O)CCS(=O)(=O)c1nc(-c2ccccc2)cc(C(F)(F)F)n1`, the IC50 is reported as 24.2 µM (inactive). `COc1ccc(-c2cc(C(F)(F)F)nc(S(=O)(=O)CCCC(=O)Nc3cccnc3Cl)n2)cc1OC` was tested, and the IC50 was 32.6 µM (inactive). In the case of `Cc1ccccc1-c1noc(N)c1C#N`, the IC50 is reported as > 55.7 µM (inactive). `O=C(c1ccc(Cl)cc1)N1CCN(c2ccnc3cc(Cl)ccc23)CC1` was tested, and the IC50 was 22 µM (inactive). `Cc1cc(NC(=O)CCCS(=O)(=O)c2nc(-c3cccs3)cc(C(F)(F)F)n2)no1` was tested, and the IC50 was > 55.7 µM (inactive). In the case of `COCC(C)NC(=O)CCS(=O)(=O)c1nc(-c2ccc(OC)cc2)cc(C(F)(F)F)n1` (stereo not drawn), the IC50 is reported as > 55.7 µM (inactive). In the case of `Cc1ccc(S(=O)(=O)N2CCN(C(C(=O)Nc3ccc(F)cc3)c3ccccc3)CC2)cc1` (stereo not drawn), the IC50 is reported as > 55.7 µM (inactive). In the case of `CCOC(=O)N1CCN(C(=O)/C=C/c2c(C)nn(-c3ccc(F)cc3)c2Cl)CC1`, the IC50 is reported as 37.1 µM (inactive). In the case of `CC1C(=O)NN=C1C(=O)N/N=C\C(Br)=C\c1ccccc1` (stereo not drawn), the IC50 is reported as 23.8 µM (inactive). `COC(=O)C1=CN(Cc2ccc(OC)c(OC)c2)C=C(C(=O)OC)C1c1cccs1` was tested, and the IC50 was > 55.7 µM (inactive). With `C#Cc1ccc([C@H]2C=C(C(=O)OCC=C)O[C@@H](OCC)[C@@H]2CCCO)cc1` the IC50 was > 55.7 µM (inactive). For `Cc1ccc(-n2nc(C(=O)O)c3ccccc3c2=O)cc1C`, the IC50 was > 55.7 µM (inactive). `CCN(CC)S(=O)(=O)c1ccc(N2CCOCC2)c(NC(=O)c2cc(-c3ccccn3)nc3ccccc23)c1` gave an IC50 of 9.73 µM. In the case of `CS(=O)(=O)c1nc(-c2ccco2)cc(C(F)(F)F)n1`, the IC50 is reported as 38 µM (inactive). In the case of `COc1ccc(-n2c(SCc3cccnc3)nc3c(c2=O)SCC3)cc1OC`, the IC50 is reported as > 55.7 µM (inactive). For `Cc1ccc(-c2csc3ncnc(Sc4nnc(CN5CCCCCC5=O)o4)c23)cc1`, the IC50 was 12.2 µM (inactive). In the case of `CCOC(=O)C(=CNc1cc(C)nn1-c1ccccc1)C(=O)OCC`, the IC50 is reported as > 55.7 µM (inactive). In the case of `CN1CCN(Cc2nc3ccccc3c(=O)n2Cc2nc(-c3ccc4ccccc4c3)cs2)CC1`, the IC50 is reported as 49.2 µM (inactive). In the case of `COc1ccccc1-c1cc(C(F)(F)F)nc(S(=O)(=O)CCCC(=O)N2CCOCC2)n1`, the IC50 is reported as 30.9 µM (inactive). For `CCn1c(O)c(/C=N/NC(=O)c2ccncc2)c(=O)n(CC)c1=S`, the IC50 was > 55.7 µM (inactive). In the case of `CCOc1cc(-c2noc(N)c2C#N)cc(OCC)c1OCC`, the IC50 is reported as > 55.7 µM (inactive). `Cc1ccc2[nH]c3c(N4CCN(Cc5ccccc5)CC4)ncnc3c2c1` was tested, and the IC50 was 16.2 µM (inactive). With `CCOC(=O)c1c(C)nc2sc3c(=O)n(-c4ccc(OC)cc4)nnc3c2c1-c1ccc(OC)cc1` the IC50 was > 55.7 µM (inactive). `COc1ccc(CNc2ncnc3cc(Cl)ccc23)cc1OC` was tested, and the IC50 was > 18.6 µM (inactive). In the case of `CC1(C)Cc2c(ccc3ccccc23)C2=C(C(=O)N3CCCC3)C(=O)C(=O)N21`, the IC50 is reported as > 55.7 µM (inactive). In the case of `COc1ccc(-c2cc(C(F)(F)F)nc(S(=O)(=O)CCCC(=O)Nc3cc(C)on3)n2)cc1OC`, the IC50 is reported as 24.8 µM (inactive). In the case of `O=C(c1ccc2c(c1)N(Cc1ccccc1)C(=O)c1ccccc1S2)N1CCCC1`, the IC50 is reported as > 55.7 µM (inactive). `CCOC(=O)N1CCN(C(=O)c2ccc(-n3c(=S)[nH]c4ccccc4c3=O)cc2)CC1` was tested, and the IC50 was > 55.7 µM (inactive). `Cn1c(C(=O)N2CCN(c3ccc([N+](=O)[O-])cc3)CC2)cc2c(=O)[nH]c3ccccc3c21` was tested, and the IC50 was 28.7 µM (inactive). `CCOC(=O)N1CCN(C(=O)c2ccc(CSc3ccc(Cl)cc3)cc2)CC1` was tested, and the IC50 was 16.5 µM (inactive). For `O=C(c1ccco1)N1CCN(c2ncnc3c2[nH]c2ccc(Br)cc23)CC1`, the IC50 was 25.6 µM (inactive). For `CCn1c(=O)c2cc(C(=O)N3CCCC3)sc2c2ccccc21`, the IC50 was > 55.7 µM (inactive). In the case of `COc1ccc(CCNc2ncnc3cc(OC)c(OC)cc23)cc1OC`, the IC50 is reported as 14.6 µM (inactive). `COC(=O)CCS(=O)(=O)c1nc(-c2ccccc2)cc(C(F)(F)F)n1` was tested, and the IC50 was 25.5 µM (inactive). `O=c1cc(CSc2nc3ccccc3c(=O)[nH]2)c2ccc(O)cc2o1` was tested, and the IC50 was > 55.7 µM (inactive). `Cc1ccc(C(=O)Nc2cccc(N(C)S(C)(=O)=O)c2)cc1S(=O)(=O)Nc1ccccc1` was tested, and the IC50 was > 55.7 µM (inactive). In the case of `Cc1cc(=O)n(C(NC(=O)c2ccccc2)C(=O)c2ccccc2)cn1` (stereo not drawn), the IC50 is reported as > 55.7 µM (inactive). With `Cn1nnnc1Sc1ncnc2scc(-c3ccc(F)cc3)c12` the IC50 was 22.6 µM (inactive). In the case of `COc1ccc(-c2cc(C(F)(F)F)nc(S(=O)(=O)CCCC(=O)Nc3cccc(O)c3)n2)cc1OC`, the IC50 is reported as 31 µM (inactive). For `COc1ccc(CCNC(=O)Cn2c(=O)n(-c3ccc(F)cc3)c(=O)c3sccc32)cc1OC`, the IC50 was > 55.7 µM (inactive). In the case of `O=C(CSc1nc2ccccc2c(=O)[nH]1)c1ccc(O)cc1O`, the IC50 is reported as > 55.7 µM (inactive). `COc1ccccc1CNc1ncnc2cc(Cl)ccc12` was tested, and the IC50 was > 55.7 µM (inactive). For `O=C(NNC(=O)c1cccc(S(=O)(=O)N2CCc3ccccc32)c1)c1ccccc1`, the IC50 was 15.9 µM (inactive).
